# Source: the Kinase Knowledgebase extract (Sharma et al. 2016)
# Target: CDK2 (UniProt P24941)
# Assay: Enzyme Assay
# Settings: not given
row,Structure (SMILES),IC50 [µM]
1,COc1cc[nH]c1/C=C1\C(=O)Nc2ccc3[nH]c(C)nc3c21,< 3.5
2,COc1cc[nH]c1/C=C1\C(=O)Nc2ccc3[nH]c(-c4ccccc4O)nc3c21,< 3.5
3,COc1cc[nH]c1/C=C1\C(=O)Nc2ccc3[nH]c(NCC4CCCO4)nc3c21 (configuration not stated),< 3.5
4,COc1cc[nH]c1/C=C1\C(=O)Nc2ccc3[nH]c(C(O)c4ccccc4)nc3c21 (configuration not stated),< 3.5
5,Cc1nc[nH]c1/C=C1\C(=O)Nc2ccc([N+](=O)[O-])c(F)c21,< 3.5
6,COc1cc[nH]c1/C=C1\C(=O)Nc2ccc3[nH]c(NC(C)c4ccccc4)nc3c21 (configuration not stated),< 3.5
7,COc1cc[nH]c1/C=C1\C(=O)Nc2ccc3[nH]c(-c4ccc(C(=O)O)cc4)nc3c21,< 3.5
8,COc1cc[nH]c1/C=C1\C(=O)Nc2ccc3[nH]c(CCc4ccc(O)cc4)nc3c21,< 3.5
9,COc1cc[nH]c1/C=C1\C(=O)Nc2ccc3[nH]c(-c4ccccc4)nc3c21,< 3.5
10,Cc1nc[nH]c1/C=C1\C(=O)Nc2ccc3[nH]cnc3c21,< 3.5
11,Cc1nc[nH]c1/C=C1\C(=O)Nc2ccc([N+](=O)[O-])c(N=[N+]=[N-])c21,< 3.5
12,COc1cc[nH]c1/C=C1\C(=O)Nc2ccc3[nH]c(Nc4ccc(N(C)C)cc4)nc3c21,< 3.5
13,Cc1nc[nH]c1/C=C1\C(=O)Nc2ccc(N)c(N)c21,< 3.5
14,O=C1Nc2ccc3[nH]c(-c4ccccc4)nc3c2/C1=C/c1ccc[nH]1,< 3.5
15,Cc1nc[nH]c1/C=C1\C(=O)Nc2ccc([N+](=O)[O-])c(N)c21,< 3.5
16,COCCCNc1nc2c3c(ccc2[nH]1)NC(=O)/C3=C\c1[nH]ccc1OC,< 3.5
17,COc1cc[nH]c1/C=C1\C(=O)Nc2ccc3nc[nH]c3c21,< 3.5
18,COc1ccc(Cc2nc3c4c(ccc3[nH]2)NC(=O)/C4=C\c2[nH]ccc2OC)cc1,< 3.5
19,COc1cc[nH]c1/C=C1\C(=O)Nc2ccc3[nH]c(CCCc4ccccc4)nc3c21,< 3.5

# Same assay, conditions: concentration not given here
row,Structure (SMILES),inhibition [%]
1,COc1ccc(Nc2nc3c4c(ccc3[nH]2)NC(=O)/C4=C\c2[nH]ccc2OC)cc1,< 50
2,COc1ccc(CCNc2nc3c4c(ccc3[nH]2)NC(=O)/C4=C\c2[nH]ccc2OC)cc1OC,< 50
3,COc1cc[nH]c1/C=C1\C(=O)Nc2ccc3[nH]c(Nc4cccc(C(C)=O)c4)nc3c21,< 50
4,COc1cc[nH]c1/C=C1\C(=O)Nc2ccc3nc(Nc4ccc5c(c4)CCC5)[nH]c3c21,< 50
5,COc1ccc(Nc2nc3c4c(ccc3[nH]2)NC(=O)/C4=C\c2[nH]ccc2OC)cc1OC,< 50
6,COc1cc[nH]c1/C=C1\C(=O)Nc2ccc3[nH]c(NCCCCc4ccccc4)nc3c21,< 50
7,COc1cc[nH]c1/C=C1\C(=O)Nc2ccc3nc(NCc4ccc5c(c4)OCO5)[nH]c3c21,< 50
8,COc1cc[nH]c1/C=C1\C(=O)Nc2ccc3nc(NCCCc4ccccc4)[nH]c3c21,< 50
9,COc1ccccc1Nc1nc2c3c(ccc2[nH]1)NC(=O)/C3=C\c1[nH]ccc1OC,< 50
10,COc1cc[nH]c1/C=C1\C(=O)Nc2ccc3nc(NCc4cccc5ccccc45)[nH]c3c21,< 50
11,CCOC(=O)c1ccc(Nc2nc3c4c(ccc3[nH]2)NC(=O)/C4=C\c2[nH]ccc2OC)cc1,< 50
12,COC(=O)c1ccc(Nc2nc3c4c(ccc3[nH]2)NC(=O)/C4=C\c2[nH]ccc2OC)cc1,< 50

# Target: CDK2 (human) (UniProt P24941)
# Assay: Cell-Based Assay
# Settings: sw480
row,Structure (SMILES),IC50 [µM]
1,COc1cc[nH]c1/C=C1\C(=O)Nc2ccc3[nH]c(C)nc3c21,< 1
